Values joined by “and” are separate entries in the source; they are usually repeats but may differ in a detail not shown here. Identical values can stand only once.
Assays:
tau-tau binding [1] = assay: Solid-phase tau-tau binding assay, tau Preparation 1 (WO96/30766); assay type: biochemical, human
From the text: This point was further examined by studying the potency of typical aggregated tau ligands as tau-aggregation inhibitors. It has been shown previously that tau aggregation inhibitors (e.g. diaminophenothiazines) can be identified on the basis of inhibition of tau-tau binding in a solid-phase assay (WO 96/30766). […] Thus, although these compounds are potent ligands for tau within the PHF-core, they are at most weak inhibitors at the site required for inhibition of tau-tau binding.
Large-scale purification (1 liter bacterial culture) of tau fragments was carried out as described by Goedert and Jakes (1990, EMBO J., 9, 4225-4230), with minor modifications. Cells were disrupted by rapid freezing of the cell pellet in liquid nitrogen. The pellets were then suspended in buffer containing 50 mM PIPES, 1 mM dithiothreitol (DTT) (pH 6.8). The thermostable proteins in the supernatant were dialysed against PIPES/DTT, then applied to a column containing phosphocellulose equilibrated in the same buffer. […] Fractions were analysed by SDS-PAGE and both Coomassie staining and immunoblotting. […] Protein concentrations were measured by the Lowry method (Harrington C R (1990), “Lowry protein assay containing sodium dodecyl sulphate in microtitre plates for protein determinations on fractions from brain tissue”, Analytical Biochemistry 186: 285-287).

tau-tau binding [2] = biological target: T1, tau-tau binding (Homo sapiens, UniProt P10636); assay: Solid-phase tau-tau binding assay (dGA solid phase, dGAE liquid phase), tau Preparation 2; assay type: biochemical; details: Preparation 2
T1 construct: a truncated tau protein corresponding to the core fragment and terminating at Ala390-dGA; dGAE which terminates at Glu-391; made in house; host or cells: E. coli BL21 (DE3), pRK172; DE52 flow-through, P11 phosphocellulose, PEG concentration, no heat step (Preparation 2)
T1 sequence (P10636 614-708 limits assumed): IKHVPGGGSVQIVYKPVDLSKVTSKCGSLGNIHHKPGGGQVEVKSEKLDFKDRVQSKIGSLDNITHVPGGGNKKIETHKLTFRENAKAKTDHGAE
Experimental: Preparation 2 differs from Preparation 1 above in the following respects: (1) The concentration of cells at the sonication stage is increased by 5-fold. (2) A batchwise adsorption of non-tau proteins to DE52 is included. (3) The proteins are not subjected to heat treatment. (4) The final step involves concentration using polyethylene glycol.
Escherichia coli is grown in 2×TY medium (Oxoid) supplemented with ampicillin (50 micrograms per ml) to late-logarithmic phase. Cells from 5 liters of culture are harvested by centrifugation and the cell pellets frozen rapidly over liquid nitrogen. The pellets are taken up with 50 mM PIPES (pH 6.8) containing 1 mM EDTA, 1 mM dithiothreitol and 1 mM phenylmethylsulphonylfluoride (PMSF) and bacteria lysed by sonication (2×3 min) at 4 C. The mixture is centrifuged at 10,000 rpm for 20 min. The supernatant is rotated with 1 gram of Whatman DE52 for 3 hr at 4 C. The mixture is separated on a column and the flow-through material that fails to bind to DE52 is incubated for 3 hr at 4 C, with rotation, with 0.4 g of Whatman P11 (freshly regenerated according to manufacturer's recommendations). The column is washed with column buffer (50 mM PIPES, pH 6.8 containing 1 mM EGTA, 5 mM EDTA, 0.2 mM MgCl2, 5 mM β-mercaptoethanol and 1 mM PMSF). Tau protein is eluted stepwise with a 0.1 to 1 M gradient of KCl in column buffer. Fractions containing tau (determined by immunoassay) are pooled and dialysed against 80 mM PIPES (pH6.8) containing 1 mM EGTA, 1 mM MgCl2 and 5 mM β-mercatoethanol, using dialysis tubing with a molecular weight cut-off of 1,000. The dialysate is concentrated by applying polyethylene glycol 8000 to the outside of the sac for 2-3 hr. The final concentration of tau ranged from 3 to 10 mg per ml.
When the proteins dGA and dGAE were prepared as indicated above (“Preparation 2”), the properties of the tau-tau binding assay were altered relative to the properties obtained using the preparative method described in WO96/30766 (“Preparation 1”).
The assay is performed using 96 well PVC plates (Falcon Cat. No. 353912 are used), and the following steps:
1. 50 μl dGA (˜10 μg/ml) in carbonate buffer, incubate 1 h at 37° C.
(Carbonate buffer: 50 mM carbonate bicarbonate, pH 9.6 (Na2CO3 1.59 g/l, NaHCO3 2.93 g/l))
2. Wash plate in 0.05% Tween-20.
3. 200 μl PBS+2% Marvel, incubate 1 h at 37° C.
4. Rinse plate 2× in deionised water, then wash in 0.05% Tween-20.
5. 50 μl dGAE (˜10 μg/ml) plus drug in PBS+1% fish skin gelatin+0.05% Tween-20, incubate 1 h at 37° C.
6. Wash plate in 0.05% Tween-20.
7. 50 μl antibody 423 (1:10 dilution in PBS+2% Marvel), incubate 1 h at 37° C.
8. Rinse plate 2× in deionised water, then wash in 0.05% Tween-20.
9. 50 μl HRP-anti-mouse (1:1000 dilution in PBS+0.05% Tween-20), incubate 1 h at 37° C.
10. Wash plate in 0.05% Tween-20, then rinse 1× with deionised water.
11. 50 μl substrate solution, read immediately initial rate over 2 min in plate reader at OD650.
(Substrate solution: 50 mM sodium acetate, pH 5.0+TMB (1 ml/100 ml of a 10 mg/ml solution in DMSO)+H2O2 (10 μl/100 ml)).

PHFs = assay: Spectrofluorometry of primulin in solution and bound to PHFs (ifII); assay type: binding
Experimental: These measurements were carried out in a Perkin-Elmer spectrofluorimeter (model MPF-3). A concentration of ligand of 0.00001% was routinely used for all measurements. […] All measurements were therefore carried out at a standard excitation wavelength of 370 nm, and a constant slit width of 3 mm.
Further investigations into the relationship between aggregation-dependent tau ligands and tau aggregation inhibitors were carried out using primulin. Primulin in solution has a fluorescence peak at 520 nm. This shifts to 470 nm when primulin is bound within a pure preparation of PHFs (FIG. 6). […] Therefore, binding by such compounds is dependent on the polymerised state of tau found in the PHF, but is not present in free tau.
Compounds have been identified which disrupt the structure of the PHF and reverse the proteolytic stability of the PHF core (see WO 96/30766). Examples of such compounds are shown in accompanying FIG. 8. The present inventors have now identified that these compounds bind to tau at a specific binding site within the high affinity tau-tau binding domain.

Cc1ccc2sc(-c3ccc4sc(-c5ccc(N)cc5)nc4c3)nc2c1S(=O)(=O)[O-].[Na+] [primulin]
inhibition of tau-tau binding (tau-tau binding [1]): weak inhibitors of tau-tau binding | inhibition of tau-tau binding (tau-tau binding [2]): no inhibitory activity | excitation peak (PHFs; ligand 0.00001%): 370 nm | fluorescence peak when bound within PHFs (PHFs; pure preparation of PHFs): 460 nm and 470 nm | fluorescence (emission) peak in solution (PHFs; unbound): 515 nm and 520 nm

From patent US8097615B2, “Neurofibrillary labels” (Wista Laboratories Ltd., priority 2001, dated 2012)
